Results published in patent US20210220356A1, “DIHYDROPYRIMIDINE DERIVATIVES AND USES THEREOF IN THE TREATMENT OF HBV INFECTION OR OF HBV-INDUCED DISEASES” (Janssen Sciences Ireland Unlimited Company, priority 2018, published 2021).
Like-named read-outs stand apart in the source and are kept apart here.

Tests used:
HBV = HBV inhibitory activity in HepG2.2.15 cells (HBV DNA in culture medium by q-PCR); format: cell-based; settings: HepG2.2.15 cells, 40,000 cells/well, 6 days of compound treatment, HBV DNA in culture medium by q-PCR, highest concentration 10 uM, read-out: EC50
Summary of the method: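 HepG2.2.15 cells (40,000/well, 2% FBS) treated 6 days with compounds, medium refreshed once; 8 points, 3-fold dilution, top 10 uM. Secreted HBV DNA in medium extracted and quantified by q-PCR; EC50 calculated from dose-response.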

[1] = Cytotoxicity determination in HepG2.2.15 cells (CCK-8); format: cell-based; settings: human, HepG2.2.15 cells, HepG2.2.15 cells, 5,000 cells/well, 6 days of compound treatment, CCK-8 absorbance 450 nm, highest concentration 100 uM
Summary of the method: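 HepG2.2.15 cells, 5,000/well in 2% FBS medium, treated 6 days with compound (medium refreshed midway), 8-point 3-fold dilutions from 100 uM top. Viability read by CCK-8, 2.5 h at 37° C, absorbance 450 nm with 630 nm reference; CC50 from curve fitting.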

[2] = Hepatitis B virus, HepG2.2.15, 144 h

SMILES | EC50 (HBV) | CC50 at 6 days [1] | EC50 (HBV; [2])
CCOC(=O)C1=C(C2CCc3nn(CCC(=O)O)cc3C2)NC(c2nccs2)=NC1c1cccc(F)c1Cl (single isomer, unassigned) [Compound 40b, 3-(5-(6-(2-Chloro-3-fluorophenyl)-5-(ethoxycarbonyl)-2-(thiazol-2-yl)-3,6-dihydropyrimidin-4-yl)-4,5,6,7-tetrahydro-2H-indazol-2-yl)propanoic acid] | 480 nM | 21500 nM | –
CCOC(=O)C1=C(C2CCc3nn(CCC(=O)O)cc3C2)NC(c2nccs2)=NC1c1cccc(F)c1Br (single isomer, unassigned) [Compound 42b, 3-(5-(6-(2-bromo-3-fluorophenyl)-5-(ethoxycarbonyl)-2-(thiazol-2-yl)-3,6-dihydropyrimidin-4-yl)-4,5,6,7-tetrahydro-2H-indazol-2-yl)propanoic acid] | 131 nM | 10200 nM | –
CCOC(=O)C1=C(C2CCc3nn(CCC(=O)O)cc3C2)NC(c2ncc(F)cc2F)=NC1c1ccc(F)c(F)c1Cl (single isomer, unassigned) [Compound 43b, 3-(5-(6-(2-Chloro-3,4-difluorophenyl)-2-(3,5-difluoropyridin-2-yl)-5-(ethoxycarbonyl)-3,6-dihydropyrimidin-4-yl)-4,5,6,7-tetrahydro-2H-indazol-2-yl)propanoic acid] | 125 nM | 31300 nM | –
COC(=O)C1=C(C2CCc3nn(CCC(=O)O)cc3C2)NC(c2nccs2)=NC1c1cccc(F)c1Cl (single isomer, unassigned) [Compound 44b, 3-(5-(6-(2-Chloro-3-fluorophenyl)-5-(methoxycarbonyl)-2-(thiazol-2-yl)-3,6-dihydropyrimidin-4-yl)-4,5,6,7-tetrahydro-2H-indazol-2-yl)propanoic acid] | 383 nM | 21000 nM | –
COC(=O)C1=C(C2CCc3nn(CCC(=O)O)cc3C2)NC(c2nccs2)=NC1c1cccc(F)c1Br (single isomer, unassigned) [Compound 45b, 3-(5-(6-(2-Bromo-3-fluorophenyl)-5-(methoxycarbonyl)-2-(thiazol-2-yl)-3,6-dihydropyrimidin-4-yl)-4,5,6,7-tetrahydro-2H-indazol-2-yl)propanoic acid] | 213 nM | 18200 nM | –
COC(=O)C1=C(C2CCc3nn(CCC(=O)O)cc3C2)NC(c2nccs2)=NC1c1ccc(F)c(F)c1Br (single isomer, unassigned) [Compound 46a, 3-(5-(6-(2-Bromo-3,4-difluorophenyl)-5-(methoxycarbonyl)-2-(thiazol-2-yl)-3,6-dihydropyrimidin-4-yl)-4,5,6,7-tetrahydro-2H-indazol-2-yl)propanoic acid] | 219 nM | 17300 nM | –
CCOC(=O)C1=C(C2CCc3nn(CCCC(=O)O)cc3C2)NC(c2nccs2)=NC1c1ccc(F)c(F)c1Cl (single isomer, unassigned) [Compound 50b, 4-(5-(6-(2-Chloro-3,4-difluorophenyl)-5-(ethoxycarbonyl)-2-(thiazol-2-yl)-3,6-dihydropyrimidin-4-yl)-4,5,6,7-tetrahydro-2H-indazol-2-yl)butanoic acid] | 116 nM | 12600 nM | –
CCOC(=O)C1=C(C2CCc3nn(C(C)CC(=O)O)cc3C2)NC(c2nccs2)=NC1c1ccc(F)c(F)c1Cl (single isomer, unassigned) [Compound 51b, 3-(5-(6-(2-chloro-3,4-difluorophenyl)-5-(ethoxycarbonyl)-2-(thiazol-2-yl)-3,6-dihydropyrimidin-4-yl)-4,5,6,7-tetrahydro-2H-indazol-2-yl)butanoic acid] | 11.7 nM | 7700 nM | –
CCOC(=O)C1=C(C2CCc3nn(CC(C)(C)C(=O)O)cc3C2)NC(c2nccs2)=NC1c1ccc(F)c(F)c1Cl (single isomer, unassigned) [Compound 53a, 3-(5-(6-(2-Chloro-3,4-difluorophenyl)-5-(ethoxycarbonyl)-2-(thiazol-2-yl)-3,6-dihydropyrimidin-4-yl)-4,5,6,7-tetrahydro-2H-indazol-2-yl)-2,2-dimethylpropanoic acid] | 132 nM | 7200 nM | –
CCOC(=O)C1=C(C2CCc3oc(CCC(=O)O)nc3C2)NC(c2nccs2)=NC1c1ccc(F)c(F)c1Cl (single isomer, unassigned) [Compound 57c, 3-(5-(6-(2-Chloro-3,4-difluorophenyl)-5-(ethoxycarbonyl)-2-(thiazol-2-yl)-3,6-dihydropyrimidin-4-yl)-4,5,6,7-tetrahydrobenzo[d]oxazol-2-yl)propanoic acid] | 12.5 nM | 7700 nM | –
CCOC(=O)C1=C(C2CCc3nc(CCC(=O)O)oc3C2)NC(c2nccs2)=NC1c1ccc(F)c(F)c1Cl (single isomer, unassigned) [Compound 58b, 3-(6-(6-(2-Chloro-3,4-difluorophenyl)-5-(ethoxycarbonyl)-2-(thiazol-2-yl)-3,6-dihydropyrimidin-4-yl)-4,5,6,7-tetrahydrobenzo[d]oxazol-2-yl)propanoic acid] | – | 9800 nM | 6.2 nM
CCOC(=O)C1=C(C2CCc3sc(CCC(=O)O)nc3C2)NC(c2nccs2)=NC1c1ccc(F)c(F)c1Cl (single isomer, unassigned) [Compound 59c, 3-(5-(6-(2-Chloro-3,4-difluorophenyl)-5-(ethoxycarbonyl)-2-(thiazol-2-yl)-3,6-dihydropyrimidin-4-yl)-4,5,6,7-tetrahydrobenzo[d]thiazol-2-yl)propanoic acid] | – | 4100 nM | 132 nM
CCOC(=O)C1=C(C2CCc3nc(CCC(=O)O)sc3C2)NC(c2nccs2)=NC1c1ccc(F)c(F)c1Cl (single isomer, unassigned) [Compound 60b, 3-(6-(6-(2-Chloro-3,4-difluorophenyl)-5-(ethoxycarbonyl)-2-(thiazol-2-yl)-3,6-dihydropyrimidin-4-yl)-4,5,6,7-tetrahydrobenzo[d]thiazol-2-yl)propanoic acid] | – | 3400 nM | 24.1 nM
COC(=O)C1=C(C2CCc3[nH]ncc3C2)NC(c2nccs2)=NC1c1ccc(F)c(F)c1Cl (single isomer, unassigned) [Compound 65a, Methyl 4-(2-chloro-3,4-difluorophenyl)-6-(4,5,6,7-tetrahydro-1H-indazol-5-yl)-2-(thiazol-2-yl)-1,4-dihydropyrimidine-5-carboxylate] | 56.3 nM | 11800 nM | –
COC(=O)C1=C(C2CCc3nn(CCC(=O)O)cc3C2)NC(c2nccs2)=NC1c1ccc(F)c(F)c1Cl (single isomer, unassigned) [Compound 70b, 3-(-5-(6-(2-chloro-3,4-difluorophenyl)-5-(methoxycarbonyl)-2-(thiazol-2-yl)-3,6-dihydropyrimidin-4-yl)-4,5,6,7-tetrahydro-2H-indazol-2-yl)propanoic acid] | 83 nM | 22700 nM | –
COC(=O)C1=C(C2CCc3nc([C@H]4C[C@H](C(=O)O)C4)oc3C2)NC(c2nccs2)=NC1c1ccc(F)c(F)c1Cl (single isomer, unassigned) [Compound 72b, (trans)-3-(6-(6-(2-Chloro-3,4-difluorophenyl)-5-(methoxycarbonyl)-2-(thiazol-2-yl)-3,6-dihydropyrimidin-4-yl)-4,5,6,7-tetrahydrobenzo[d]oxazol-2-yl)cyclobutanecarboxylic acid] | 21.5 nM | 7000 nM | –
